A short description of one data set: in vitro. The note with it: human.
The subject of data set [1] is Plasmodium falciparum Dd2 asexual blood stage parasites. The data set can be described thus: microbe, parasite or virus in culture. Also noted: species or system Plasmodium falciparum Dd2 in human erythrocytes; single determination (one 11-point concentration-response curve). The note with it: Plasmodium falciparum, DD2, Erythrocyte, 72 h; read-out: AC50.
Where [2] appears, read: HepG2-A16-CD81EGFP cells, uninfected.

In publication PMC7822874, “Chemoprotective antimalarials identified through quantitative high-throughput screening of Plasmodium blood and liver stage parasites” (Scientific Reports, 2021) one finds viability and AC50 data, which are given here for 23 molecules.

For orientation: viability means a read-out of living cells in per cent, often relative to untreated cells. As usually defined, the AC50 is the concentration at which the activity in the assay is half-maximal.

`O=C(CCl)N(c1ccccc1)c1c[nH]c2ccccc12` [MLS000554103-01]: in the data set “in vitro” (setting [2]), the viability at 48 h, 1 µM turned out to be 100% and the viability at 48 h, 3 µM is 100%. Also, in data set [1], the concentration at half-maximal activity (AC50) came to 2.11 µM.
Regarding `CCCCn1c2c(c(=N)c3c1CCC3)CCC2` [MLS000080126-01], in “in vitro” (setting [2]), the viability at 48 h, 1 µM was 111% and the viability at 48 h, 3 µM turned out to be 80%. Besides, the AC50 in data set [1] came to 8.41 µM.
Consider `COc1cccc(OC)c1C(=O)NC(S)=Nc1ccc2c(c1)C(=O)N(C)C2=O` [MLS000331897-01], for which, in “in vitro” (setting [2]), the viability at 66 h was 103%. Also, the AC50 in data set [1] turned out to be 0.944 µM.
On the same counts, the results for `O=S(=O)(c1ccccc1)c1nnn2c1nc(NC1CCN(Cc3ccccc3)CC1)c1cc(Cl)ccc12` [MLS000925207-01] are 101% and 2.99 µM.
Regarding `O=C(c1cnn2c(C(F)F)cc(-c3ccccc3)nc12)N1CCCCC1c1cccnc1` (centres unmarked) [MLS000728797-01], in “in vitro” (setting [2]), the viability at 48 h was found to be 102% and the viability at 48 h, 1 µM is 102%. In addition, the AC50 in data set [1] turned out to be 8.41 µM.
`COc1cc(O)c(C(CCN2CCCC(C)C2)c2ccc(N(C)C)cc2)c(OC)c1` (centres unmarked) [MLS000879516-01]: in the data set “in vitro” (setting [2]), the viability at 48 h came to 110% and the viability at 48 h, 1 µM is 110%. Further, the AC50 in data set [1] was found to be 1.68 µM.
In the case of `CCCn1c(SCC(=O)Nc2cc(Cl)ccc2Cl)n[nH]c1=O` [MLS001002877-01], in the data set “in vitro” (setting [2]), the viability at 48 h, 1 µM worked out at 97% and the viability at 48 h, 3 µM was determined as 94%. For the same molecule, the AC50 in data set [1] worked out at 5.31 µM.
In the same order, the values of `O=S(=O)(c1ccc(Cl)cc1)N1CCN(/C(S)=N/c2ccccc2F)CC1` [MLS001002653-01] are 97%, 94% and 2.37 µM.
On to `CCN1CCN(Cc2ccc(NC(=O)c3cc(NC(=O)C(=O)c4c[nH]c5ccccc45)cc(OC)c3)cc2C(F)(F)F)CC1` [MLS003105970-01], for which the viability at 66 h in the data set “in vitro” (setting [2]) turned out to be 105%. Moreover, the AC50 in data set [1] came to 0.668 µM.
Regarding `N#Cc1cc(C(=O)c2cc(Br)ccc2O)cn(C2CCCCC2)c1=O` [MLS000565115-01], in “in vitro” (setting [2]), the viability at 48 h, 1 µM amounted to 90% and the viability at 48 h, 3 µM was found to be 84%. Further, the AC50 in data set [1] came out at 0.668 µM.
With `Oc1ccc(C2NCc3ccccc3-n3cccc32)cc1Cl` (centres unmarked) [MLS000047999-01], in “in vitro” (setting [2]), the viability at 48 h, 1 µM came out at 99% and the viability at 48 h, 3 µM stood at 90%. Further, the AC50 in data set [1] worked out at 1.5 µM.
Take `COc1ccc(CNCc2cc3c(C(C)(C)C)nn(-c4ccccc4)c3[nH]c2=O)cc1` [MLS000067276-01]: in “in vitro” (setting [2]), the viability at 48 h, 1 µM is 103% and the viability at 48 h, 3 µM is 109%. Further, the AC50 in data set [1] is 0.841 µM.
On the same counts, the results for `CCCCN(C)CCNC(=O)c1cc2c(-c3cccc(OC)c3)nn(C)c2s1` [MLS001199565-01] are 86%, 85% and 6.68 µM.
With `COc1ccc(NC(C)C(=O)Nc2cc(C(F)(F)F)ccc2N2CCOCC2)c(OC)c1` (centres unmarked) [MLS000334848-01], in “in vitro” (setting [2]), the viability at 48 h, 1 µM is 100% and the viability at 48 h, 3 µM worked out at 91%. Further, the AC50 in data set [1] worked out at 0.841 µM.
In the same order, the values of `CCc1nc(Nc2ccc3nccnc3c2)c2oc3ccccc3c2n1` [MLS000041713-01] are 104%, 95% and 2.37 µM.
With `COc1ccc(CCNC(=O)c2cc(C(=O)c3cc(Cl)ccc3O)cn(CCc3ccc(OC)cc3)c2=O)cc1` [MLS000402334-01], in “in vitro” (setting [2]), the viability at 66 h is 105%. The concentration at half-maximal activity (AC50) in data set [1] was determined as 3.76 µM.
Turning to `O=S(=O)(c1ccc(Cl)cc1)N1CCN(C(S)=NCC2CCCO2)CC1` (centres unmarked) [MLS001124005-01], in the data set “in vitro” (setting [2]), the viability at 48 h, 1 µM is 85% and the viability at 48 h, 3 µM was determined as 85%. For the same molecule, in data set [1], the AC50 was 1.88 µM.
With `Oc1ccccc1Nc1nc(-c2ccccc2O)nc2ccccc12` [MLS001164904-01], the viability at 66 h in “in vitro” (setting [2]) was 101%. Further, the AC50 in data set [1] was found to be 0.944 µM.
For the molecule `COc1cc(NC(=O)c2cc3c(Cl)nc4ccccc4c3s2)cc(OC)c1OC` [MLS000582472-01], in the data set “in vitro” (setting [2]), the viability at 48 h, 1 µM worked out at 90% and the viability at 48 h, 3 µM worked out at 84%. For the same molecule, the AC50 in data set [1] was determined as 4.73 µM.
Take `CC(C)CCNC(=O)c1cc(C(=O)c2cc(Br)ccc2O)cn(CCC(C)C)c1=O` [MLS000775608-01]: the viability at 66 h in the data set “in vitro” stood at 105%. In data set [1], the AC50 turned out to be 0.944 µM.
Regarding `CCN1CCC(Nc2ccnc3cc(Cl)ccc23)CC1` [MLS000737411-01], in “in vitro” (setting [2]), the viability at 48 h, 1 µM was 99% and the viability at 48 h, 3 µM came to 100%. For the same molecule, the AC50 in data set [1] amounted to 0.188 µM.
On to `O=c1c(-c2ccc(Br)cc2)coc2c(CN3CCCCC3)c(O)ccc12` [MLS001214902-01], for which the viability at 66 h in “in vitro” (setting [2]) came out at 98.2%. In addition, the AC50 in data set [1] came out at 2.11 µM.
For `CCc1cc2c(Sc3nc4ccccc4s3)ncnc2s1` [MLS000544746-01], in the data set “in vitro” (setting [2]), the viability at 48 h, 1 µM was found to be 104% and the viability at 48 h, 3 µM amounted to 101%. Further, the AC50 in data set [1] worked out at 1.5 µM.
